The source made the active and inactive calls. The rule behind the calls is not given here.
Legend:
Acinetobacter baumannii [1] = test: Antibacterial activity against wild type Acinetobacter baumannii ATCC 17978 by checkerboard assay; format: functional
Acinetobacter baumannii [2] = test: Antibacterial activity against novobiocin and test compound-resistant Acinetobacter baumannii ATCC 17978 mutant generated from seven serial passages in presence of novobiocin by checkerboard assay; format: functional
Acinetobacter baumannii [3] = test: Antibacterial activity against colistin-resistant Acinetobacter baumannii ATCC 17978 mutant generated from seven serial passages by checkerboard assay; format: functional
Acinetobacter baumannii [4] = test: Antibacterial activity against novobiocin-resistant Acinetobacter baumannii ATCC 17978 mutant generated from seven serial passages by checkerboard assay; format: functional
Pseudomonas aeruginosa = test: Potentiation of novobiocin-induced antibacterial activity against wild type Pseudomonas aeruginosa PAO1 incubated for 18 hrs by CLSI protocol based assay; format: functional, organism-based

Compound	MIC (Acinetobacter baumannii [1])	MIC (Acinetobacter baumannii [2])	MIC (Acinetobacter baumannii [3])	MIC (Acinetobacter baumannii [4])	Activity (Pseudomonas aeruginosa)
O=C(O)c1cn(C2CC2)c2cc(N3CCNCC3)c(F)cc2c1=O [CIPROFLOXACIN]	1 µg/mL				
O=C(N[C@H](CO)[C@H](O)c1ccc([N+](=O)[O-])cc1)C(Cl)Cl [CHLORAMPHENICOL]	64 µg/mL	64 µg/mL	8 µg/mL	32 µg/mL	
CC(C)(O/N=C(\C(=O)N[C@@H]1C(=O)N2C(C(=O)[O-])=C(C[n+]3ccccc3)CS[C@H]12)c1csc(N)n1)C(=O)O [CEFTAZIDIME]	16 µg/mL	16 µg/mL	1 µg/mL	32 µg/mL	
CN(C)c1ccc(O)c2c1C[C@H]1C[C@H]3[C@H](N(C)C)C(O)=C(C(N)=O)C(=O)[C@@]3(O)C(O)=C1C2=O [MINOCYCLINE]	0.125 µg/mL	0.125 µg/mL	< 0.031 µg/mL	0.5 µg/mL	
C#CCCCCO[C@@H]1[C@@H](O[C@H]2O[C@H](CO)[C@@H](O)[C@H](N)[C@H]2O)[C@H](N)C[C@H](N)[C@H]1O[C@H]1O[C@H](CN)[C@@H](O)C[C@H]1N					inactive
